Assay results published in patent EP0726944B1, “GL[…] NON-GLYCOSYLATED BACTERICIDAL/PE[…], AND METHODS FOR PRODUCING SAME” (INCYTE PHARMACEUTICALS, INC., priority 1993, dated 1995).
Where “and” joins values, the source holds several entries; their conditions need not be identical. Equal values may be shown once.

Legend:
[1] = test system: human neutrophils; test: Neutrophil stimulation by LPS: CR1/CR3 upregulation, flow cytometry; type: cell-based; conditions: stoichiometric calculation
Procedure: Venous blood was drawn from healthy volunteer donors into acid citrate dextrose anticoagulant and immediately placed on ice. Five parts blood were mixed with 1 part cold Macrodex, and allowed to settle for 1.5 - 2 hours at 4°C. Leukocyte-rich plasma was washed 1X in cold HBSS, then resuspended in HBSS and layered over Ficoll-Paque. If significant erythrocyte contamination was present, the granulocyte pellet was subjected to hypotonic lysis. The cells were washed 2X in HBSS and resuspended in HBSS + 2% autologous plasma to give a final granulocyte concentration of 1 X 10^6/ml in the incubation mixture.
Isolated neutrophils were kept on ice until incubated with and without stimuli at 37°C for 30 minutes. Following the incubation, cells were washed in a large volume of cold PBS + 0.05% Na Azide + 2% autologous plasma. […] Following a 30 minute incubation at 0°C and 2 more washes, the cells were analyzed by flow cytometry on a Becton Dickinson FACStar flow cytometer (Becton Dickinson, Mountain View, CA). […]
Human neutrophils may be stimulated both in vivo and in vitro by lipopolysaccharide. […] Using the Fluorescence Activated Cell Sorter (FACS), fluorescence intensity of freshly isolated human neutrophils was measured following stimulation with increasing doses of 0111:B4 LPS (data not shown). […]

[2] = test system: Human Monocytes; test: LPS-induced TNF production by adherent peripheral blood mononuclear cells, ELISA; type: cell-based; conditions: Table 8; 1000 ng/ml Polymyxin B; 0.1 % w/v killed S. aureus
[3] = test system: Human Monocytes; test: as above; type: cell-based
Procedure: Human peripheral blood mononuclear cells were isolated on Ficoll-Paque (Pharmacia) gradients, washed 2X in pyrogen-free HBSS (Hazelton), and resuspended at 5 X 10^6/ml in RPMI (Gibco) media without serum. Two hundred µl of this cell suspension was incubated in each well of flat-bottom 96-well tissue culture dishes (Costar) for 2 hours at 37°C. Nonadherent cells were removed by washing 2X with RPMI + 10% autologous heat inactivated serum. Adherent mononuclear cells were stimulated with E. coli 0111:B4 LPS which had been preincubated for 30 minutes at 37°C with buffer, BPI Protein or polymyxin B (Gibco; 7900 U/ml). Supernatants were harvested four hours after LPS mixtures were added. Secretion of TNFα was quantitated by ELISA (Endogen) (results at Table 9).
BPI Protein produced in soluble form at low temperature in E. coli and purified as described above in purification process A was tested for inhibition of endotoxin-mediated TNF induction by human adherent mononuclear cells. Blood collected in acid citrate dextrose containing vacutainer tubes (Becton Dickinson, Rutherford, NJ) was diluted in Hank's balanced salt solution (HBSS) minus Ca^+2 and Mg^+2. Mononuclear cells were separated using Ficol-Paque (Pharmacia Inc., Piscataway, N.J.), collected and washed three times in HBSS, and the proportion of monocytes was estimated by microscopic examination. Cells were brought up to an appropriate volume of RPMI 1640 with glutamine and antibiotics and without serum to give approximately 1 x 10^6 monocytes/ml. Cells were plated into 96 11 flat bottom tissue culture plates (Costar, Cambridge, MA), 200 µl/well, and incubated for two hours at 37°C in a humidified incubator with […]. Cells were then washed three times in warm RPMI 1640 without serum. After the last wash was aspirated, 200 µl/well RPMI 1640 with 10% autologous heat-inactivated serum was added. To each well was then added the 22µl of 10X solution of E. coli endotoxin preincubated in buffer, polymyxin B, or BPI Protein. Cells were incubated with the endotoxin mixture for four hours at 37°C, then the supernatants were collected and assayed for TNFα antigen by ELISA (Endogen, Inc., Boston, MA) (Figure 12) .

[4] = type: binding; conditions: data not shown
Procedure: BPI Protein binds to LPS (data not shown). In these experiments, 4 µg of LPS/well was immobilized on 96 well plastic plates, then incubated with varying concentrations of BPI Protein, and developed with anti-BPI Protein polyclonal antisera. […]

[5] = test system: mice; test: Intranasal LPS challenge, TNFα in broncheoalveolar lavage fluid; type: in vivo; design: TNFα level in Broncheoalveolar Lavage Fluid, individual mouse: unit not given here; conditions: Polymyxin B 1.0µg (782 pmol) intranasal 20 minutes before LPS, BAL 1 hour after challenge
Procedure: Normal anesthetized mice were challenged by the intranasal route with 10 ng/ml E. coli 0111:B4 LPS (results in Table 10). Twenty minutes before challenge, anesthetized mice were treated by the intranasal route with 50µl saline, BPI Protein or polymyxin B solution. At one hour after LPS challenge, mice were re-anesthetized, and 0.7 ml of saline containing 1% human serum albumin was added to the lungs via the trachea. The lungs were gently kneaded. A 0.5 ml volume broncheoalveolar lavage (BAL) fluid was aspirated, cells were pelleted by centrifugation, and the BAL sample was stored at -70°C. The TNFα level in the BAL fluid was determined by measuring cytotoxicity towards WEHI clone 13 mouse fibrosarcoma cells and is summarized in Table 10. Human rTNFα (Chiron) was used as the standard.

## Polymyxin B
[1]
  calculated amount of PMB required to inhibit 10 ng/ml of smooth LPS: approximately 0.67 nM
[2]
  TNF Produced in Response to S. aureus Preincubated with substance: 1685 ± 121 pg/mL
[3]; Table 5, 100 ng/ml, LPS 0 ng/ml
  TNF Produced in Response to LPS Preincubated with substance: 0 pg/mL
[3]; Table 5, 100 ng/ml, LPS 0.1 ng/ml
  TNF Produced in Response to LPS Preincubated with substance: 0 pg/mL
[3]; Table 5, 100 ng/ml, LPS 1 ng/ml
  TNF Produced in Response to LPS Preincubated with substance: 96 pg/mL
[3]; Table 5, 100 ng/ml, LPS 10 ng/ml
  TNF Produced in Response to LPS Preincubated with substance: 2154 pg/mL
[3]; Table 5, 500 ng/ml, LPS 0 ng/ml
  TNF Produced in Response to LPS Preincubated with substance: 0 pg/mL
[3]; Table 5, 500 ng/ml, LPS 0.1 ng/ml
  TNF Produced in Response to LPS Preincubated with substance: 0 pg/mL
[3]; Table 5, 500 ng/ml, LPS 1 ng/ml
  TNF Produced in Response to LPS Preincubated with substance: 0 pg/mL
[3]; Table 5, 500 ng/ml, LPS 10 ng/ml
  TNF Produced in Response to LPS Preincubated with substance: 1490 pg/mL
[3]; Table 7, 100 ng/ml PMB, LPS 0 ng/ml
  TNF Produced in Response to LPS Preincubated with substance: 0 pg/mL
[3]; Table 7, 100 ng/ml PMB, LPS 0.1 ng/ml
  TNF Produced in Response to LPS Preincubated with substance: 79 pg/mL
[3]; Table 7, 100 ng/ml PMB, LPS 1 ng/ml
  TNF Produced in Response to LPS Preincubated with substance: 1207 pg/mL
[3]; Table 7, 100 ng/ml PMB, LPS 10 ng/ml
  TNF Produced in Response to LPS Preincubated with substance: 1270 pg/mL
[3]; Table 8, 100 ng/ml Polymyxin B, 0.1 % w/v killed S. aureus
  TNF Produced in Response to S. aureus Preincubated with substance: 1541 ± 397 pg/mL
[3]; Table 8, 100 ng/ml Polymyxin B, LPS 10 (unit not given)
  TNF Produced in Response to LPS Preincubated with substance: 601 ± 257 pg/mL
[3]; Table 8, 100 ng/ml Polymyxin B, LPS 100 (unit not given)
  TNF Produced in Response to LPS Preincubated with substance: 1140 ± 73 pg/mL
[3]; Table 8, 100 ng/ml Polymyxin B, LPS 1000 (unit not given)
  TNF Produced in Response to LPS Preincubated with substance: 1016 ± 20 pg/mL
[3]; Table 8, 1000 ng/ml Polymyxin B, LPS 10 (unit not given)
  TNF Produced in Response to LPS Preincubated with substance: 333 ± 18 pg/mL
[3]; Table 8, 1000 ng/ml Polymyxin B, LPS 100 (unit not given)
  TNF Produced in Response to LPS Preincubated with substance: 769 ± 101 pg/mL
[3]; Table 8, 1000 ng/ml Polymyxin B, LPS 1000 (unit not given)
  TNF Produced in Response to LPS Preincubated with substance: 844 ± 144 pg/mL
[4]
  inhibition of BPI Protein binding to LPS: inhibited
[5]
  TNFα level in Broncheoalveolar Lavage Fluid, Mean ± SD: 253 ± 251
[5]; mice 1-5
  TNFα level in Broncheoalveolar Lavage Fluid, individual mouse: 74 and 50 and 132 and 370 and 640
